# Laboratory results taken from patent US20230293407A1, “Compositions Comprising (Bio)-Alkanediols with Antimicrobials for Product Protection” (Symrise AG, priority 2020, published 2023).
# Where “and” joins values, the source holds several entries; their conditions need not be identical. Identical values can stand only once. Like-named read-outs stand apart in the source and are kept apart here.
# Legend:
# Test in all cases: preservation efficacy test (PET), European Pharmacopoeia 5.1.3
# Assay type in all cases: cell-based
# Aspergillus brasiliensis = system: Aspergillus brasiliensis
# Pseudomonas aeruginosa = system: Pseudomonas aeruginosa
# Staphylococcus aureus = system: Staphylococcus aureus
# Escherichia coli = system: Escherichia coli
# Candida albicans = conditions: for CA germ count, 2 days: 2 days after inoculation; for CA germ count, 2 days / CA germ count, 7 days / CA germ count, 14 days / CA germ count, 28 days: substance at given % in test formulation; for CA germ count, 7 days: 7 days after inoculation
# [1] = in wet wipes, 7 days after inoculation
# [2] = in wet wipes, 14 days after inoculation
# [3] = in wet wipes, 28 days after inoculation
# [4] = in wet wipes, 2 days after inoculation
# [5] = 14 days after inoculation, substance at given % in test formulation
# [6] = 28 days after inoculation, substance at given % in test formulation
# [7] = 2 days after inoculation, substance at given % in test formulation
# [8] = 7 days after inoculation, substance at given % in test formulation
Compound,"PA germ count, 14 days (Pseudomonas aeruginosa; [5])","PA germ count, 28 days (Pseudomonas aeruginosa; [6])","EC germ count, 2 days (Escherichia coli; [7])","EC germ count, 7 days (Escherichia coli; [8])","EC germ count, 14 days (Escherichia coli; [5])","EC germ count, 28 days (Escherichia coli; [6])","SA germ count, 7 days (Staphylococcus aureus; [8])","SA germ count, 14 days (Staphylococcus aureus; [5])","SA germ count, 28 days (Staphylococcus aureus; [6])","PA germ count, 2 days (Pseudomonas aeruginosa; [7])","PA germ count, 7 days (Pseudomonas aeruginosa; [8])","CA germ count, 28 days (Candida albicans; 28 days after inoculation)","SA germ count, 2 days (Staphylococcus aureus; [7])",also measured
O=C([O-])c1ccccc1.[Na+] [0.1% Sodium Benzoate],–,–,–,–,–,–,–,–,–,–,–,–,–,"AB germ count, 14 days (Aspergillus brasiliensis): 20.000; AB germ count, 28 days (Aspergillus brasiliensis): 4.800; PA germ count, 28 days (Pseudomonas aeruginosa): 18.000 and 10; SA germ count, 2 days (Staphylococcus aureus): 14.000 and 10; SA germ count, 7 days (Staphylococcus aureus): 9.800 and 10"
"CCCCCC(O)C(C)O (stereo not shown) [0.1% 2,3-octanediol]",–,–,–,–,–,–,–,–,–,–,–,–,–,"PA germ count, 7 days (Pseudomonas aeruginosa; [1]): 630.000; PA germ count, 14 days (Pseudomonas aeruginosa; [2]): 310.000; PA germ count, 28 days (Pseudomonas aeruginosa; [3]): 27.000; EC germ count, 14 days (Escherichia coli; [2]): 850.000; EC germ count, 28 days (Escherichia coli; [3]): 1.600; SA germ count, 2 days (Staphylococcus aureus; [4]): 50; SA germ count, 7 days (Staphylococcus aureus; [1]): 50; SA germ count, 14 days (Staphylococcus aureus; [2]): 50; SA germ count, 28 days (Staphylococcus aureus; [3]): 50"
"CCCCCC(O)C(C)O (stereo not shown) [0.1% 2,3-Octanediol]",1,1,690.000,11.000,1.200,1,9.500,1,1,–,–,–,–,–
CCCCCC(O)CO (stereo not shown) [0.3% 1.2-heptanediol],–,–,–,–,–,–,–,–,–,–,–,–,–,"count at 2 days (Pseudomonas aeruginosa; PA, 2 days after inoculation, use concentration in label): 1; count at 7 days (Pseudomonas aeruginosa; PA, 7 days after inoculation, use concentration in label): 1; count at 14 days (Pseudomonas aeruginosa; PA, 14 days after inoculation, use concentration in label): 1; count at 28 days (Pseudomonas aeruginosa; PA, 28 days after inoculation, use concentration in label): 1; count at 2 days (Escherichia coli; EC, 2 days after inoculation, use concentration in label): 130.000; count at 7 days (Escherichia coli; EC, 7 days after inoculation, use concentration in label): 2.400; count at 14 days (Escherichia coli; EC, 14 days after inoculation, use concentration in label): 1; count at 28 days (Escherichia coli; EC, 28 days after inoculation, use concentration in label): 1; count at 14 days (Candida albicans; CA, 14 days after inoculation, use concentration in label): 260.000; count at 28 days (Candida albicans; CA, 28 days after inoculation, use concentration in label): 150.000; count at 2 days (Staphylococcus aureus; SA, 2 days after inoculation, use concentration in label): 16.000; count at 7 days (Staphylococcus aureus; SA, 7 days after inoculation, use concentration in label): 1; count at 14 days (Staphylococcus aureus; SA, 14 days after inoculation, use concentration in label): 1; count at 28 days (Staphylococcus aureus; SA, 28 days after inoculation, use concentration in label): 1"
"CCCCCCC(O)CO (stereo not shown) [0.1% 1,2-octanediol]",–,–,–,–,–,–,–,–,–,–,–,–,–,"PA germ count, 14 days (Pseudomonas aeruginosa; [2]): 750.000; PA germ count, 28 days (Pseudomonas aeruginosa; [3]): 350.000; EC germ count, 28 days (Escherichia coli; [3]): 2.300; SA germ count, 2 days (Staphylococcus aureus; [4]): 425; SA germ count, 7 days (Staphylococcus aureus; [1]): 50; SA germ count, 14 days (Staphylococcus aureus; [2]): 50; SA germ count, 28 days (Staphylococcus aureus; [3]): 50"
"CCCCCCC(O)CO (stereo not shown) [0.2% 1,2-octanediol]",1,1,1,1,1,1,1,1,1,1,1,1,1,"CA germ count, 2 days (Candida albicans): 950.000; CA germ count, 7 days (Candida albicans): 15.000; CA germ count, 14 days (Candida albicans; 14 days after inoculation): 36"
CCCCCCCC(=O)OCC(O)CO (stereo not shown) [0.2% glyceryl caprylate],1,1,1,1,1,1,1,1,1,1,1,1,1,"CA germ count, 2 days (Candida albicans): 12.000; CA germ count, 7 days (Candida albicans): 260; CA germ count, 14 days (Candida albicans; 14 days after inoculation): 1"
CC(CO)CCCC1CCCCC1 (stereo not shown) [1.0% 2-Methyl 5-Cyclohexylpentanol],780.000,–,960.000,490.000,310.000,380.000,760,1,1,670.000,570.000,630.000,110.000,–
